According to publication PMC13198257, “An aerosolized dual-action autotaxin inhibitor-PPARγ agonist for the treatment of pulmonary fibrosis” (Cell Reports Medicine, 2026):

Columns and labels:
ATX [1] = biological target: T1, ATX (Homo sapiens, UniProt Q13822); experiment: Amplex Red assay: ATX inhibitory activity in vitro; assay type: biochemical; details: in vitro; for IC50: Amplex Red assay
T1 construct: purchased Sino Biological 11308-H07H
Experimental: ATX inhibitory activity in vitro of examined compounds was assessed with the Amplex Red assay,[32]^,[35]^,[36] as recently published in detail.[37] The assay was done in Amplex Red Assay buffer (Tris 50 mM, CaCl2 5 mM, pH 8). Briefly, 50 μL of increasing concentrations of each compound were placed in separate wells of a black 96-well plate. […] 50 μL of the LPC-containing assay buffer (200 μM) were added to the wells and incubated for 30 min at 37°C to allow the enzyme to initially interact with its substrate. 50 μL of the detection mix (Amplex Red 200 μM, choline oxidase 0.4 U/mL, horseradish peroxidase 4 U/mL) were added to the plate wells. Fluorescence was measured in a Tecan M200 Fluorimeter using excitation at 530 nm and reading at 590 nm, every 5 min for 30 min. The velocity of the reaction and the remaining ATX activity were calculated at the linear phase of the reaction. Dose-response inhibition graphs were plotted with GraphPad Software.

ATX [2] = biological target: T1, ATX; experiment: Mode of ATX inhibition, Lineweaver-Burk plots (various LPC concentrations); assay type: biochemical
Experimental: To determine the mode of inhibition of ATX, various concentrations of TGZ, compound 5 and EL244 were tested against various LPC concentrations. Specifically, TGZ was tested against 6.25, 12.5, 25, 50 and 100 μM LPC, compound 5 was tested against 3.125, 6.25, 12.5, 25, 50 and 100 μM LPC, while EL244 was tested against 25, 50, 100 and 150 μM LPC. Lineweaver–Burk graphs depicting the reciprocal of velocity (1/V) against the reciprocal of substrate concentration (1/S) were plotted with GraphPad Software.

ATX activity in serum = experiment: TOOS assay: ex vivo lyso-PLD (ATX) activity in serum with 2 mM exogenous LPC; assay type: biochemical
Experimental: ATX inhibitory activity ex vivo of examined compounds was assessed via the colorimetric TOOS assay.[32]^,[35]^,[36] The assay was done in Lyso-PLD buffer (100 mM Tris-Cl, pH 8, 500 mM NaCl, 5 mM MgCl2, 5 mM CaCl2). A mix of Lyso-PLD buffer and serum (10:1) was prepared. LPC 16:0 was added to this mix at a final concentration of 2 mM. Increasing concentrations of compounds and a choline standard curve (0–100 μM) were prepared using the Lyso-PLD buffer/serum/LPC mix and 100 μL of these were placed in separate wells of a 96-well plate, followed by a 5 h incubation at 37°C. 100 μL of color mix (TOOS 0.3 mM, 4-AAP 0.5 mM, choline oxidase 2 U/mL, HRP 7.95 U/mL in Lyso-PLD buffer) were added to each well. Color was measured at 550 nm using an Optimax spectrophotometer. Background was subtracted from all values to account for the endogenous LPC and choline in the serum. Produced choline levels were calculated from the choline standard curve and indicate the amount of substrate (LPC) that had been consumed in each well corresponding to Lyso-PLD activity.

PPARγ = biological target: T2, PPARγ (Homo sapiens, UniProt P37231); experiment: PPARγ Gal4 hybrid reporter gene assay; assay type: cell-based; details: for EC50 / PPARγ fold activ. (max. activation): Gal4-hybrid reporter, HEK293T cells; for Selectivity for PPARγ: versus PPARα and PPARδ hybrid reporters
T2 construct: expressed in transfected cells; host or cells: HEK293T
T2 sequence (P37231 238-503 limits assumed): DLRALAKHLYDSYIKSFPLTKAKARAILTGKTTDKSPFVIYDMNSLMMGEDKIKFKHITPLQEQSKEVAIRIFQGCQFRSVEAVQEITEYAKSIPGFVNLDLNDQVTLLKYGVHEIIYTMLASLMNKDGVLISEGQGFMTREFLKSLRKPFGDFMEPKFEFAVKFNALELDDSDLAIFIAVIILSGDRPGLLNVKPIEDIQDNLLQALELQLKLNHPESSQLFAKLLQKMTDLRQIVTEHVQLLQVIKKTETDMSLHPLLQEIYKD
Experimental: All well-established assays were performed following straightforward methodology.[49] Plasmids pFA-CMV-hPPARα-LBD, pFA-CMV-hPPARγ-LBD and pFA-CMV-hPPARδ-LBD code for the hinge region and ligand binding domain of the canonical isoform of the respective nuclear receptor and were used to express the Gal4 hybrid receptors. pFR-Luc (Stratagene, La Jolla, CA, USA) and pRL-SV40 (Promega, Madison, WI, USA) were used as Gal4-responsive reporter and as internal control in the hybrid reporter gene assays, respectively. HEK293T cells were seeded in 96-well plates (3×10^4 cells/well). Before transfection, the medium was changed to Opti-MEM without supplements, and transient transfection with the plasmids pFR-Luc, pRL-SV40, and one pFA-CMV-NR-LBD clone was carried out using Lipofectamine LTX reagent (Invitrogen, Carlsbad, CA, USA) according to the manufacturer’s protocol. […] Normalisation of transfection efficiency and cell growth was performed by dividing firefly luminescence by Renilla luminescence and multiplying the result by 1000, yielding relative light units (RLU). Fold activation was obtained by dividing the mean RLU of the test compound by the mean RLU of the untreated control.

[3] = AMP membrane permeability; assay type: in vitro ADME; details: 10 μΜ
[4] = Cytotoxicity in HepG2 hepatocytes; assay type: cell-based; details: human, HepG2 cells
[5] = tested on: BLM-induced pulmonary fibrosis; experiment: BLM-induced pulmonary fibrosis model, inhaled drug; assay type: in vivo, C57Bl/6 mice
From the text: BLM-induced pulmonary fibrosis was induced via the oropharyngeal aspiration of BLM (0.8 U/Kg).[54]^,[55]^,[141] The dose and route of administration have been selected following extensive local testing to minimise lethality while preserving a solid and reproducible fibrotic profile. Readout assays include weight and overall health status, pulmonary oedema and inflammation, collagen levels determination (soluble in BALFs, Q-RT-PCR and histology in lung tissue), lung histology with specialised stainings (Fast green/picrosirius red), as well as the measurement of respiratory functions (flexiVent, SQIREQ); a detailed protocol is publicly available at protocols.io.
Drug inhalation of compound 5 and EL244 to conscious, softly restrained mice was performed using the inExpose system (Scireq).[55] Compound 5 and EL244 were diluted in Kolliphor (15% and 10%, respectively) to final concentrations of 6.5 and 9.02 mg/mL, respectively. Volumes of 1 mL (for 5) and 0.6 mL (for EL244) were aerosolized over 10 and 15 min, respectively in groups of 6 mice, corresponding to a final estimated dose of 15mg/Kg per mouse. Control groups received an aerosolized solution of Kolliphor (10–15%) in saline.

[6] = Mouse metabolic clearance and half-life in vitro
[7] = inhaled 15 mg/kg b.i.d., therapeutic mode from 7 days post-BLM
[8] = inhaled 15 mg/kg o.d., prophylactic mode
[9] = inhaled 15 mg/kg o.d., therapeutic mode from day 7 post-BLM

For `O=C1NC(=O)C(Cc2ccc(OCCN3CCN(C(=O)OCc4cc(Cl)cc(Cl)c4)CC3)cc2)S1` (centres unmarked) [Compound 5, 3,5-dichlorobenzyl4-(2-(4-((2,4-dioxothiazolidin-5-yl)methyl)phenoxy)ethyl)piperazine-1-carboxylate], which IC50 (ATX [1]) is on record?
Its IC50 is 290 nM.

And the “Mode of ATX inhibition” value (ATX [2])?
Its value is “non-competitive”.

What about the “lyso-PLD (ATX) inhibition in serum” value (ATX activity in serum) of the same molecule?
The value was “dose-dependent effect”.

What about the EC50 (PPARγ) of the same molecule?
Its EC50 is 1500 nM.

What about the “PPARγ fold activ. (max. activation)” value (PPARγ) of the same molecule?
Its value is 9 ± 1 fold.

What about the “Selectivity for PPARγ” value (PPARγ) of the same molecule?
Its value is “selective PPARγ agonist”.

What about the AMP [3] of the same molecule?
The AMP was 3.7e-06 cm/s.

What about the CC50 [4] of the same molecule?
The CC50 was 90300 nM.

And the BALF inflammatory cells [5, 7]?
Its BALF inflammatory cells is “decreased inflammatory cells”.

And the “BALF total protein (vascular leak, pulmonary edema)” value [5, 7]?
The value was “decreased total protein levels”.

And the “Decrease of BALF soluble collagen” value [5, 7]?
The value was “did not reach statistical significance”.

What about the “Decrease of lung tissue Col1a1 mRNA” value [5, 7] of the same molecule?
Its value is “did not reach statistical significance”.

And the “Histology (H&E, fast green/Sirius red)” value [5, 7]?
Its value is “fewer fibrotic regions and decreased collagen deposition”.

And the “Respiratory functions (Cst, Crs, A)” value [5, 7]?
Its value is “efficiently attenuated the BLM-induced impairment of respiratory functions”.

What about the half-life at 0.1 μM [6] of the same molecule?
Its half-life at 0.1 μM is 21 min.

With `O=C1NC(=O)C(Cc2ccc(OCCC3CCN(C(=O)OCc4cc(Cl)cc(Cl)c4)CC3)cc2)S1` (centres unmarked) [EL244, 3,5-dichlorobenzyl 4-(2-(4-((2,4-dioxothiazolidin-5-yl)methyl)phenoxy)ethyl)piperidine-1-carboxylate] as the molecule, how does the IC50 (ATX [1]) read?
Its IC50 is 50 nM.

And the “ATX inhibitory effect, fold better than 5” value (ATX [1])?
Its value is 5 fold.

What about the “ATX inhibitory effect, fold better than GLPG1690” value (ATX [1]) of the same molecule?
Its value is 3 fold.

What about the “ATX inhibitory effect, fold better than TGZ” value (ATX [1]) of the same molecule?
Its value is 10 fold.

And the “Mode of ATX inhibition” value (ATX [2])?
Its value is “competitive”.

And the “lyso-PLD (ATX) inhibition in serum” value (ATX activity in serum)?
Its value is “Improved lyso-PLD inhibition”.

What about the EC50 (PPARγ) of the same molecule?
The EC50 was 1300 nM.

And the “PPARγ fold activ. (max. activation)” value (PPARγ)?
The value was 17 ± 1 fold.

And the “Selectivity for PPARγ” value (PPARγ)?
The value was “selectively”.

What about the AMP [3] of the same molecule?
Its AMP is 8e-07 cm/s.

And the CC50 [4]?
Its CC50 is 81200 nM.

And the “PPARγ target gene mRNA in lung tissue (RT-qPCR)” value ([5]; BLM mice, inhaled EL244)?
Its value is “marginal increases”.

What about the BALF soluble collagen [5, 8] of the same molecule?
Its BALF soluble collagen is “significantly reduced”.

What about the Histology [5, 8] of the same molecule?
The Histology was “attenuated collagen deposition and reduced fibrotic regions”.

What about the “Inflammation (BALF inflammatory cells)” value [5, 8] of the same molecule?
Its value is “markedly reduced”.

And the “Lung tissue Col1a1 mRNA” value [5, 8]?
Its value is “significantly reduced”.

And the “Pulmonary edema (BALF total protein)” value [5, 8]?
The value was “markedly reduced”.

And the Respiratory functions ([5]; inhaled 15 mg/kg o.d., prophylactic mode, 15 days from one day before BLM)?
Its Respiratory functions is “significantly improved respiratory functions”.

And the BALF soluble collagen [5, 9]?
Its BALF soluble collagen is “significantly reducing”.

And the “Effect on inflammation (BALF inflammatory cells)” value [5, 9]?
Its value is “did not reach statistical significance”.

And the Histopathology [5, 9]?
Its Histopathology is “reduced collagen deposition and fewer and smaller fibrotic regions”.

What about the “Lung tissue Col1a1 expression” value [5, 9] of the same molecule?
The value was “significantly reducing”.

What about the Respiratory functions [5, 9] of the same molecule?
Its Respiratory functions is “significantly restored all assessed respiratory functions”.

What about the “Vascular permeability (BALF total protein)” value [5, 9] of the same molecule?
The value was “reduced vascular permeability”.

And the half-life at 0.1 μM [6]?
The half-life at 0.1 μM was 61 min.

And the microsomal CLint at 0.1 μM [6]?
The microsomal CLint at 0.1 μM was 114 µL/min/mg.
